Results reported in patent US10604535B2, “Compounds, compositions and methods” (Denali Therapeutics Inc., priority 2016, dated 2020).
Like-named read-outs stand apart in the source and are kept apart here.

Assays:
[1] = tested on: FADD-deficient Jurkat cells; test: Cellular necroptosis assay (human TNFα-induced necrosis, CellTiter-Glo); format: cell-based; settings: 48 h, TNFα 10 ng/mL, read-out: Cell IC50
[2] = tested on: human cryopreserved hepatocytes; test: Metabolic stability (hepatocytes); settings: human cryopreserved hepatocytes
Experimental: The metabolic stability of compounds was evaluated in human cryopreserved hepatocytes (BioreclamationlVT, NY, USA) in duplicate. Test articles (or controls) were added to a 24-well incubation plate (Becton Dickinson Labware, USA) containing 0.5×10^6 hepatocytes/mL in suspension. The plate was held at 37° C. and agitated with constant orbital shaking (orbital speed at 350 rpm). At each time point (0, 5, 10, 15, 20, 30, 45, 60, 90, 120, 150 and 180 min) a Tecan Evo robot aspirated 50 μL of the incubation mixture and 100 μL of acetonitrile containing internal standard to quench the reaction. […] Samples were centrifuged (3000 rpm for 10 minutes) and the plate sealed prior to injection onto an LC-MS/MS system.
The appropriate parent/daughter ions were monitored for the test article and IS with the LC-MS/MS system. The intrinsic clearance (Clint; expressed μL/min/million cells) was determined from the first order elimination constant (k, min^−1) of test article decay and the volume of the incubation. […] The intrinsic organ CL was then converted to the hepatic clearance (CLhep) using the well-stirred model as shown below, where Qh is human hepatic blood flow.
Hepatic clearance is expressed as mL/min/kg. The hepatic clearance relates to the flow of blood through the liver that is completely cleared of the compound.

GST-hRIPK1 (8-327) [3] = target: T1, GST-hRIPK1 (8-327) (Homo sapiens (Human), UniProt Q13546); test: ADP-Glo kinase assay; format: biochemical
T1 sequence (Q13546 8-327): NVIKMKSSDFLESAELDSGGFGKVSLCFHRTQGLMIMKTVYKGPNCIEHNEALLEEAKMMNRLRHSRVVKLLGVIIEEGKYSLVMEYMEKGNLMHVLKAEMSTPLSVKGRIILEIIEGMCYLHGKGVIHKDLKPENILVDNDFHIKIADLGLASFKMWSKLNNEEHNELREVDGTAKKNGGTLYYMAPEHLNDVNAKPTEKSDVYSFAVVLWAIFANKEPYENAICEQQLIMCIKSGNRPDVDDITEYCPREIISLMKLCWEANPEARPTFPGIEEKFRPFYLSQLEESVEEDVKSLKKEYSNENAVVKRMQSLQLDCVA
Experimental: GST-hRIPK1 (8-327) enzyme was generated by Proteros GmbH by Baculovirus expression system.
Test compounds were diluted in DMSO and 0.1 μL of solution was dispensed to each well of a 384-well white solid microplate. The assay buffer was 50 mM HEPES pH 7.5, 50 mM NaCl, 30 mM MgCl2. The buffer was supplemented with 0.02% CHAPS, 0.01% of Pluronic F127, 0.1 mg/mL BSA and 1 mM DTT. MnCl2, 5 mM, was included in the assay buffer on the day of the experiment. The enzymatic reaction comprised 1.5 μg/mL GST-hRIPK1 (8-327) and 50 μM ATP for receptor interacting protein kinase 1 and 15 μM ATP. 5 μL of enzyme and 5 μL of ATP were added to the plate at twice the final assay concentration and incubated at room temperature for 3 hours. Following this reaction, 10 μL of ADP-Glo reagent (Promega) was added to each well and incubated for 40 min at room temperature. This stops the kinase reaction and depletes any remaining ATP. 20 μL of ADP-Glo detection reagent was then added to each well and incubated at room temperature for at least 15 minutes. The detection reagent converts ADP to ATP and introduces luciferase and luciferin to detect ATP. The luminescence is then measured with the Envision (PerkinElmer) plate reader. Test compound inhibition was expressed as percent inhibition of internal assay controls. For concentration response curves, normalized data is fit and IC50 determined using XL-fit (IDBS) for Excel. The IC50 were averaged to determine a mean value, for a minimum of two independent experiments.
Test compound inhibition was expressed as percent inhibition of internal assay controls. For concentration response curves, normalized data is fit and IC50 determined using XL-fit (IDBS) for Excel. The IC50 were averaged to determine a mean value, for a minimum of two independent experiments.

GST-hRIPK1 (8-327) [4] = target: T1, GST-hRIPK1 (8-327); test: Fluorescent Polarization Binding (FP Binding) assay

Molecule | IC50 ([1]; Homo sapiens, Jurkat) [nM] | Human hepatocyte CLhep Avg [2] [mL/min/kg] | IC50 (GST-hRIPK1 (8-327) [3]) [nM] | IC50 (GST-hRIPK1 (8-327) [4]) [nM] | IC50 [1] [nM]
CN1C(=O)[C@@H](NC(=O)c2cc(Cc3ccccc3)on2)COc2ccccc21 [C, reference compound] | 1 | 19 | – | – | –
O=C(NC1CCc2ccccc2CC1)c1cc(Cc2ccccc2)on1 [Example 15, 5-benzyl-N-(6,7,8,9-tetrahydro-5H-benzo[7]annulen-7-yl)isoxazole-3-carboxamide] | – | – | > 10000 | – | –
Cc1cc(C(=O)N[C@H]2COc3ccccc3N(C)C2=O)n(Cc2ccccc2)n1 [Example 16, (S)-1-benzyl-3-methyl-N-(5-methyl-4-oxo-2,3,4,5-tetrahydrobenzo[b][1,4]oxazepin-3-yl)-1H-pyrazole-5-carboxamide] | – | – | > 10000 | – | –
CN1C(=O)[C@@H](NC(=O)c2cnn3c2[C@@H](c2ccccc2)CC3)COc2ccccc21 [Example 17, (R)—N—((S)-5-methyl-4-oxo-2,3,4,5-tetrahydrobenzo[b][1,4]oxazepin-3-yl)-4-phenyl-5,6-dihydro-4H-pyrrolo[1,2-b]pyrazole-3-carboxamide] | – | – | > 10000 | – | –
CN1C(=O)[C@@H](NC(=O)c2cc(C3(c4ccccc4)CC3)on2)COc2cccnc21 [Example 77, (S)—N-(5-methyl-4-oxo-2,3,4,5-tetrahydropyrido[3,2-b][1,4]oxazepin-3-yl)-5-(1-phenylcyclopropyl)isoxazole-3-carboxamide] | – | 19 | – | – | –
CN1C(=O)[C@@H](NC(=O)c2cc(Cc3ccccc3)on2)COc2cccnc21 [Example 142, (S)-5-Benzyl-N-(5-methyl-4-oxo-2,3,4,5-tetrahydropyrido[3,2-b][1,4]oxazepin-3-yl)isoxazole-3-carboxamide] | – | 16 | – | 0.1 to 1000 | –
CN1C(=O)[C@@H](NC(=O)c2nnc(Cc3ccccc3)o2)CCc2cccnc21 [Example 148A, (S)-5-benzyl-N-(9-methyl-8-oxo-6,7,8,9-tetrahydro-5H-pyrido[2,3-b]azepin-7-yl)-1,3,4-oxadiazole-2-carboxamide] | – | 12 | – | 0.1 to 1000 | –
CN1C(=O)[C@@H](NC(=O)c2nnc(Cc3cccc(C#N)c3)[nH]2)COc2cccnc21 [Example 161, (S)-5-(3-cyanobenzyl)-N-(5-methyl-4-oxo-2,3,4,5-tetrahydropyrido[3,2-b][1,4]oxazepin-3-yl)-4H-1,2,4-triazole-3-carboxamide] | – | 0 | – | 0.1 to 1000 | –
CN1C(=O)[C@@H](NC(=O)c2nnc(Cc3cccc(C#N)c3)[nH]2)COc2ccccc21 [Example 163, (S)-5-(3-cyanobenzyl)-N-(5-methyl-4-oxo-2,3,4,5-tetrahydrobenzo[b][1,4]oxazepin-3-yl)-4H-1,2,4-triazole-3-carboxamide] | – | 0 | – | 0.1 to 1000 | –
N#Cc1cccc(Cn2cc(F)c(C(=O)N[C@@H]3C(=O)Nc4c(F)cc(F)cc4[C@@H]4C[C@H]34)n2)c1 [Example 170A, 1-(3-cyanobenzyl)-N-((1aS,2S,8bR)-5,7-difluoro-3-oxo-1,1a,2,3,4,8b-hexahydrobenzo[b]cyclopropa[d]azepin-2-yl)-4-fluoro-1H-pyrazole-3-carboxamide] | – | 3.1 | – | 0.1 to 1000 | –
CN1C(=O)[C@@H](NC(=O)c2nn(Cc3ccccc3F)cc2F)[C@H]2C[C@H]2c2nccnc21 [Example 179A, 4-fluoro-1-(2-fluorobenzyl)-N-((7S,7aS,8aR)-5-methyl-6-oxo-5,6,7,7a,8,8a-hexahydrocyclopropa[d]pyrazino[2,3-b]azepin-7-yl)-1H-pyrazole-3-carboxamide] | 0.1 to 1000 | – | – | 0.1 to 1000 | –
CN1C(=O)[C@@H](NC(=O)c2nnc(C3(c4ccccc4)CC3)o2)CCc2nccnc21 [Example 180A, (S)—N-(5-methyl-6-oxo-6,7,8,9-tetrahydro-5H-pyrazino[2,3-b]azepin-7-yl)-5-(1-phenylcyclopropyl)-1,3,4-oxadiazole-2-carboxamide] | 0.1 to 1000 | – | – | 0.1 to 1000 | –
N#Cc1cccc(Cc2nnc(C(=O)N[C@@H]3C(=O)Nc4c(F)cc(F)cc4[C@@H]4C[C@H]34)[nH]2)c1 [Example 181B, 5-(3-cyanobenzyl)-N-((1aS,2S,8bR)-5,7-difluoro-3-oxo-1,1a,2,3,4,8b-hexahydrobenzo[b]cyclopropa[d]azepin-2-yl)-4H-1,2,4-triazole-3-carboxamide] | 0.1 to 1000 | – | – | 0.1 to 1000 | –
Cc1ncccc1Cn1cc(F)c(C(=O)N[C@H]2CCc3nccnc3N(C)C2=O)n1 [Example 182B, (S)-4-fluoro-N-(5-methyl-6-oxo-6,7,8,9-tetrahydro-5H-pyrazino[2,3-b]azepin-7-yl)-1-((2-methylpyridin-3-yl)methyl)-1H-pyrazole-3-carboxamide] | 0.1 to 1000 | – | – | 0.1 to 1000 | –
CN1C(=O)[C@@H](NC(=O)c2cc(Cc3ccccc3)on2)CCc2nccnc21 [Example 188, (S)-5-benzyl-N-(5-methyl-6-oxo-6,7,8,9-tetrahydro-5H-pyrazino[2,3-b]azepin-7-yl)isoxazole-3-carboxamide] | 0.1 to 1000 | – | – | 0.1 to 1000 | –
C[C@H]1Oc2cccnc2N(C)C(=O)[C@H]1NC(=O)c1ncc(Cc2ccccc2)o1 [Example 192, 5-benzyl-N-((2R,3S)-2,5-dimethyl-4-oxo-2,3,4,5-tetrahydropyrido[3,2-b][1,4]oxazepin-3-yl)oxazole-2-carboxamide] | 0.1 to 1000 | – | – | 0.1 to 1000 | –
CN1C(=O)[C@@H](NC(=O)c2cn(Cc3ccccc3)nn2)[C@H]2C[C@H]2c2nccnc21 [Example 195, 1-benzyl-N-((7S,7aS,8aR)-5-methyl-6-oxo-5,6,7,7a,8,8a-hexahydrocyclopropa[d]pyrazino[2,3-b]azepin-7-yl)-1H-1,2,3-triazole-4-carboxamide] | – | 7.1 | – | 0.1 to 1000 | –
CN1C(=O)[C@@H](NC(=O)c2cc(Cc3ccccc3)on2)[C@H]2C[C@H]2c2nccnc21 [Example 197, 5-benzyl-N-((7S,7aS,8aR)-5-methyl-6-oxo-5,6,7,7a,8,8a-hexahydrocyclopropa[d]pyrazino[2,3-b]azepin-7-yl)isoxazole-3-carboxamide] | – | 13 | – | 0.1 to 1000 | –
CN1C(=O)[C@@H](NC(=O)c2nnc(Cc3ccccc3)s2)[C@H]2C[C@H]2c2nccnc21 [Example 198, 5-benzyl-N-((7S,7aS,8aR)-5-methyl-6-oxo-5,6,7,7a,8,8a-hexahydrocyclopropa[d]pyrazino[2,3-b]azepin-7-yl)-1,3,4-thiadiazole-2-carboxamide] | – | 8.5 | – | 0.1 to 1000 | –
Cc1nc2c(s1)CC[C@H](NC(=O)c1nnc(Cc3ccccc3)o1)C(=O)N2C [Example 200, (S)-5-benzyl-N-(2,4-dimethyl-5-oxo-5,6,7,8-tetrahydro-4H-thiazolo[4,5-b]azepin-6-yl)-1,3,4-oxadiazole-2-carboxamide] | 0.1 to 1000 | – | – | 0.1 to 1000 | –
CN1C(=O)[C@@H](NC(=O)c2cn(Cc3ccccc3)nn2)COc2cccnc21 [Example 201, (S)-1-benzyl-N-(5-methyl-4-oxo-2,3,4,5-tetrahydropyrido[3,2-b][1,4]oxazepin-3-yl)-1H-1,2,3-triazole-4-carboxamide] | 0.1 to 1000 | – | – | 0.1 to 1000 | –
C[C@H]1Oc2cccnc2N(C)C(=O)[C@H]1NC(=O)c1cn(Cc2ccccc2)nn1 [Example 203, 1-benzyl-N-((2R,3S)-2,5-dimethyl-4-oxo-2,3,4,5-tetrahydropyrido[3,2-b][1,4]oxazepin-3-yl)-1H-1,2,3-triazole-4-carboxamide] | 0.1 to 1000 | – | – | 0.1 to 1000 | –
[2H]C([2H])([2H])N1C(=O)[C@@H](NC(=O)c2nn(Cc3ccccc3)cc2F)[C@@H](C)Oc2ncccc21 [Example 205, 1-benzyl-N-((3S,4R)-1-trideuteriomethyl-4-methyl-2-oxo-1,2,3,4-tetrahydropyrido[2,3-b][1,4]oxazepin-3-yl)-4-fluoro-1H-pyrazole-3-carboxamide] | – | 11 | – | 0.1 to 1000 | –
[2H]C([2H])([2H])N1C(=O)[C@@H](NC(=O)c2nn(Cc3ccccc3)cc2F)[C@H]2C[C@H]2c2cc(C#N)ccc21 [Example 206, 1-benzyl-N-((1aS,2S,8bR)-7-cyano-4-trideuteriomethyl-3-oxo-1,1a,2,3,4,8b-hexahydrobenzo[b]cyclopropa[d]azepin-2-yl)-4-fluoro-1H-pyrazole-3-carboxamide] | 0.1 to 1000 | – | – | 0.1 to 1000 | –
(S)-1-(2-cyanobenzyl)-4-fluoro-N-(5-methyl-4-oxo-2,3,4,5-tetrahydropyrido[3,2-b][1,4]oxazepin-3-yl)-1H-pyrazole-3-carboxamide [Example 153] | – | – | – | 0.1 to 1000 | 0.1 to 1000
